Source: patent US4050989A, “Process of preparing desacyl-pepsidine with bacillus pumilus” (Eisai Co., Ltd., priority 1974, dated 1977)

What was measured:
[1] = biological target: pepsin (Sus scrofa, UniProt P00791); assay: Pepsin-inhibitory activity (method of Murao and Satoi); type: biochemical
Protocol: viii. Pepsin-inhibitory activity: Pepsin-inhibitory activity of DA-pepsidine was determined using the method reported by S. Murao and S. Satoi in Agr. Biol. Chem. Japan 34 (8) 1265 - 7 (1970). […] While, that of pepsidine C is 0.86 μg.

[2] = Solubility in solvents; type: physicochemical

Chain of pepsin (P00791 60-385): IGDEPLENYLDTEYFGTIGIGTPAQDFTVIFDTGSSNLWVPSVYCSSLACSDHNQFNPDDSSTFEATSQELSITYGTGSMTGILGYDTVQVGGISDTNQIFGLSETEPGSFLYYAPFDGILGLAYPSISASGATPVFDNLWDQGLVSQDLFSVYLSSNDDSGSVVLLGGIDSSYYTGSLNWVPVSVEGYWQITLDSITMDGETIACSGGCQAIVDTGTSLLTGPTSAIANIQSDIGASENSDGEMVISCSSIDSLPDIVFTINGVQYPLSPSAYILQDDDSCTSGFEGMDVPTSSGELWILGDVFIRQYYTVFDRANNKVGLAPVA

Row | amount which gives 50% inhibition against 100 μg of pepsin [1] | Solubility ([2]; in acetic acid and methanol) | Solubility ([2]; in acetone and ethylether) | Solubility ([2]; in ethanol, n-butanol and pyridine) | SMILES
1 | 0.86 µg |  |  |  | CC(=O)N[C@H](C(=O)N[C@H](C(=O)NC(CC(C)C)C(O)CC(=O)N[C@@H](C)C(=O)NC(CC(C)C)C(O)CC(=O)O)C(C)C)C(C)C (some centres unmarked) [pepsidine C, reference compound]
2 | 0.82 µg | Easily soluble | slightly soluble | soluble | CC(C)CC(NC(=O)[C@H](C)NC(=O)CC(O)C(CC(C)C)NC(=O)[C@@H](NC(=O)[C@@H](N)C(C)C)C(C)C)C(O)CC(=O)O (some centres unmarked) [DA-pepsidine, valyl-valyl-4-amino-3-hydroxy-6-methyl-heptanoyl alanyl-4-amino-3-hydroxy-6-methyl-heptanoic acid]
